Experiment: Delivered dose study (unit spray collection apparatus, USCA)
Format: physicochemical
Protocol: Metered dose inhalers (MDIs) were prepared using deep drawn aluminum canisters (3M Corporation, Cltheroe, UK), 50 microliter Bespak PBT (polybutylene terephthalate) valves (BK0514719, Bespak Europe Ltd, Bergen Way, King's Lynn, Norfolk, PE30 2JJ) fitted with EPDM (ethylene-propylene diene terpolymer elastomer) diaphragm seals, and an Mk6 P&B actuator. The internal surface of each canister was coated with FEP (fluorinated ethylene propylene copolymer). The bulk formulation for cold filling individual canisters can be prepared by first admixing citric acid and the ethanol, and then adding the tiotropium bromide to the citric acid and ethanol mixture. HFA-134a propellant was then added to a separate batching vessel, and the mixture of tiotropium bromide, citric acid, and ethanol was then added be to the HFA-134a. The formulation was mixed at −50° C. The metered dose inhalers made according to Table 1 were designed to deliver 5 micrograms of Tiotropium (free base) per actuation.
The start of unit life delivered dose was determined using standard unit spray collection apparatus (USCA) fitted with a filter. For each determination, an MDI was attached to the USCA using a coupler and actuated a single time. Immediately prior to attachment, the MDI was shaken. Prior to collection of the test sample, the MDI was primed by actuating four times. Prior to each priming shot the MDI was shaken.

## C[N+]1(C)[C@@H]2C[C@@H](OC(=O)C(O)(c3cccs3)c3cccs3)C[C@H]1[C@@H]1O[C@@H]12 [tiotropium bromide]
MDI with Table 1 formulation (0.1204 mg/ml tiotropium bromide, 0.04 wt. % citric acid, 15 wt. % ethanol, HFA-134a; FEP can), primed by actuating four times, single actuation, FIG. 5
  Start of life dose content uniformity: 4.3 mcg/actuation
MDI with Table 1 formulation, on storage, FIG. 7
  uniformity of dose delivered on storage: remained constant on storage

Reference: patent publication US12220525B2, “Tiotropium formulation and inhaler” (KINDEVA DRUG DELIVERY L.P., priority 2018, dated 2025)
